Literature values in patent US5500433A, “Method of treating drug abuse” (Merrell Pharmaceuticals Inc., priority 1995, dated 1996).

Assays:
thrombus formation = conditions: canine models
coronary vessels = conditions: patients with stable angina
[1] = system: vascular smooth muscle cells; conditions: rabbit vascular smooth muscle cells
[2] = system: phospholipase C mediated hydrolysis of phosphoinositides; conditions: rabbit vascular smooth muscle cells
[3] = system: preference for alcohol and cocaine; conditions: rodent

Structure (SMILES) | prevention of thrombus formation (thrombus formation) | effect on coronary vessel constriction (coronary vessels) | effect on PDGF induced DNA synthesis [1] | inhibition of phospholipase C mediated hydrolysis of phosphoinositides [2] | effect on preference for alcohol and cocaine [3]
O=C(c1ccc(F)cc1)C1CCN(CCn2c(=O)[nH]c3ccccc3c2=O)CC1 [Ketanserin] | extremely effective in preventing thrombus formation | blocked coronary vessel constriction | inhibited PDGF induced DNA synthesis | inhibited phospholipase C mediated hydrolysis of phosphoinositides | 
Cc1nc2sccn2c(=O)c1CCN1CCC(=C(c2ccc(F)cc2)c2ccc(F)cc2)CC1 [ritanserin] |  |  |  |  | abolished the preference for both alcohol and cocaine
NCCc1c[nH]c2ccc(O)cc12 [serotonin] |  | induced constriction of the coronary vessels in these patients at all concentrations tested | stimulates PDGF induced DNA synthesis |  | 
